Assay results as given in patent publication US20220242870A1, “HETEROCYCLE-FUSED PYRIMIDINE DERIVATIVE AND USE THEREOF” (VORONOI Inc., priority 2019, published 2022).

target: T1, human FLT3-ITD enzyme (Homo sapiens, UniProt P36888); experiment: FLT3 enzyme inhibitory ability (ADP-Glo kinase assay); type: biochemical; conditions: human FLT3-ITD enzyme 10 ng, ATP 10 μM, 25° C. 1 hour
T1 sequence (P36888 1-993): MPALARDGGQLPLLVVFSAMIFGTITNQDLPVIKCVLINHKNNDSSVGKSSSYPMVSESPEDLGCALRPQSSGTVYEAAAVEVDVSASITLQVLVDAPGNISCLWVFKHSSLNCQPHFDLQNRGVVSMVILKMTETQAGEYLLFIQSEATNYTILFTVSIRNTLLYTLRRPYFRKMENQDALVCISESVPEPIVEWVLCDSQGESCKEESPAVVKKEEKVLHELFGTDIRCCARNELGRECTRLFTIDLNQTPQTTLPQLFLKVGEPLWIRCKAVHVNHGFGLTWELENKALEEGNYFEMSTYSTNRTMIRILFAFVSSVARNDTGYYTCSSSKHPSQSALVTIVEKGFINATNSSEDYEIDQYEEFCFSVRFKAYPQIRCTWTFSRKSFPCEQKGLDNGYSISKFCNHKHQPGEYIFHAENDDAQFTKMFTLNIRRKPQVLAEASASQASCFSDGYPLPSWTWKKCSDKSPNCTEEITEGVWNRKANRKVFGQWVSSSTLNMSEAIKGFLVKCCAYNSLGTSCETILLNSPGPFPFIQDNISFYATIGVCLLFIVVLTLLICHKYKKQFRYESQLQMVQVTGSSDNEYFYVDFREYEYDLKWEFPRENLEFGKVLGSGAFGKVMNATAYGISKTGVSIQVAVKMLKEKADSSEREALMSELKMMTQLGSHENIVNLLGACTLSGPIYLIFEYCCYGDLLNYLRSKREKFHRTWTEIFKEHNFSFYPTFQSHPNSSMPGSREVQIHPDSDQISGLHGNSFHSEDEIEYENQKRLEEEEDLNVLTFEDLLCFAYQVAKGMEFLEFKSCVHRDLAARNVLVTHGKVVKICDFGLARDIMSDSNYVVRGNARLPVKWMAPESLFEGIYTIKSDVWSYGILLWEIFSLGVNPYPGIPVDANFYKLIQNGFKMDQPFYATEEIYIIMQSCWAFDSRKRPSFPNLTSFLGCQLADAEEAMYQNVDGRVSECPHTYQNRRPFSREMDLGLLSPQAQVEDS
Experimental: The inhibitory activities of the example compounds according to the present invention to the FLT3-ITD enzyme were evaluated. Specifically, the compound of the present invention was reacted with a purified human FLT3-ITD enzyme (Signalchem). A composition of 40 mM Tris-HCl pH 7.4, 20 mM MgCl2, 0.5 mg/mL BSA and 50 μM DTT was used as a reaction buffer, and reactions of all test matters were performed on the reaction buffer. Upon the test, human FLT3-ITD enzyme (10 ng), purified ATP (10 μM) and a specific substrate solution were reacted at 25° C. for 1 hour, and then the enzyme activity was identified using an in vitro ADP-Glo™ kinase assay (Promega). The enzyme activity reaction solution, the ADP-Glo reaction solution and the enzyme ability detection solution were reacted in a ratio of 2:2:1, and the activity inhibition degree of the enzyme was measured as luminescence. Using the solvent-treated group that was not treated with the compound as a control group, the enzyme activity inhibition degree according to the treatment concentration of each compound was calculated based on the enzyme activity fluorescence degree, and the concentration of each compound that inhibited 50%, IC50 (nM), was determined using Prism Software (version 5.01, GraphPad).

Structure (SMILES) | IC50 [nM]
CCN1CCN(c2c(F)cc(Nc3nc(N4N=CCC4c4ccccc4)c4sccc4n3)cc2F)CC1 (stereo not shown) [Example 56, N-(4-(4-ethylpiperazin-1-yl)-3,5-difluorophenyl)-4-(5-phenyl-4,5-dihydro-1H-pyrazol-1-yl)thieno[3,2-d]pyrimidin-2-amine] | > 500
CN1CCN(c2ccc(Nc3nc(N4N=CCC4c4ccccc4)c4sccc4n3)cc2C(F)(F)F)CC1 (stereo not shown) [Example 53, N-(4-(4-methylpiperazin-1-yl)-3-(trifluoromethyl)phenyl)-4-(5-phenyl-4,5-dihydro-1H-pyrazol-1-yl)thieno[3,2-d]pyrimidin-2-amine] | > 500
CN1CCN(C2CCN(c3c(F)cc(Nc4nc(N5N=CCC5c5ccccc5)c5sccc5n4)cc3F)CC2)CC1 (stereo not shown) [Example 55, N-(3,5-difluoro-4-(4-(4-methylpiperazin-1-yl)piperidin-1-yl)phenyl)-4-(5-phenyl-4,5-dihydro-1H-pyrazol-1-yl)thieno[3,2-d]pyrimidin-2-amine] | > 500
CN1CCN(Cc2ccc(Nc3nc(N4N=CCC4c4ccccc4)c4sccc4n3)cc2C(F)(F)F)CC1 (stereo not shown) [Example 54, N-(4-((4-methylpiperazin-1-yl)methyl)-3-(trifluoromethyl)phenyl)-4-(5-phenyl-4,5-dihydro-1H-pyrazol-1-yl)thieno[3,2-d]pyrimidin-2-amine] | > 500
Cc1cc(Nc2nc(N3N=CCC3c3ccccc3)c3sccc3n2)cc(C)c1OCCCN1CCCC1 (stereo not shown) [Example 49, N-(3,5-dimethyl-4-(3-(pyrrolidin-1-yl)propoxy)phenyl)-4-(5-phenyl-4,5-dihydro-1H-pyrazol-1-yl)thieno[3,2-d]pyrimidin-2-amine] | > 500
Cc1cc(Nc2nc(N3N=CCC3c3ccccc3)c3sccc3n2)cc(C)c1OCCCN1CCN(C)CC1 (stereo not shown) [Example 50, N-(3,5-dimethyl-4-(3-(4-methylpiperazin-1-yl)propoxy)phenyl)-4-(5-phenyl-4,5-dihydro-1H-pyrazol-1-yl)thieno[3,2-d]pyrimidin-2-amine] | > 500
COc1cc(-c2cnn(C)c2)ccc1Nc1nc(N2N=CCC2c2ccccc2)c2sccc2n1 (stereo not shown) [Example 42, N-(2-methoxy-4-(1-methyl-1H-pyrazol-4-yl)phenyl)-4-(5-phenyl-4,5-dihydro-1H-pyrazol-1-yl)thieno[3,2-d]pyrimidin-2-amine] | > 500

target: T2, human GST-HPK1 (1-346) (Homo sapiens, UniProt Q92918); experiment: HPK1 enzyme inhibitory ability (ADP-Glo kinase assay); type: biochemical; conditions: human GST-HPK1 3 ng, ATP 3 uM, 25° C. 2 hours
T2 construct: purified human GST-HPK1 (1-346, Signalchem) enzyme; purchased Signalchem
T2 sequence (Q92918 1-346): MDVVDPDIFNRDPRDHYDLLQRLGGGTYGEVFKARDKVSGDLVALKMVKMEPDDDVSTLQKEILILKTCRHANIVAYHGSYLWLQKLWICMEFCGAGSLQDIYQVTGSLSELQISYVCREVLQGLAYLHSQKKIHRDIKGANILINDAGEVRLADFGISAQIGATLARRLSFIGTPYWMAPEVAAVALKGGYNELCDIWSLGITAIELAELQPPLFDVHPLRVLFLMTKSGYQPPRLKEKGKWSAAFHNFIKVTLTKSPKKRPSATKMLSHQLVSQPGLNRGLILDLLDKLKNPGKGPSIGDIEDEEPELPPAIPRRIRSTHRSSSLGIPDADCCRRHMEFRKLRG
Experimental: In order to evaluate the inhibitory activities of the example compounds according to the present invention on the HPK1 (hematopoietic progenitor kinase 1) enzyme, the following experiment was performed. The example compounds were reacted with the purified human GST-HPK1 (1-346, Signalchem) enzyme to evaluate the enzyme inhibitory ability by the following method. As the reaction buffer, a composition of 40 mM Tris-HCl pH 7.4, 20 mM MgCl2, 0.5 mg/mL BSA and 50 uM DTT was used, and reactions of all test matters were performed on the reaction buffer. Upon the test, the human GST-HPK1 (3 ng) enzyme, the purified ATP (3 uM) and a specific substrate solution were reacted at 25° C. for 2 hours, and then the enzyme activity was identified using an in vitro ADP-Glo™ kinase assay (promega). The enzyme activity reaction solution, the ADP-Glo reaction solution and the enzyme ability detection solution were reacted in a ratio of 2:2:1 to measure luminescence. The enzyme activity inhibition degree according to the treatment concentrations of the respective compounds was calculated based on the fluorescence of the enzyme activity of the solvent control group that was not treated with the compound, where the concentration of each compound that inhibited enzyme activity inhibition by 50% was determined as an IC50 (nM) value.

Structure (SMILES) | IC50 [nM]
CC(=O)N1CCc2cc(Nc3nc(N4OCC[C@H]4c4ccccc4)c4cc[nH]c4n3)ccc2C1 [Example 112, (S)-1-(6-((4-(3-phenylisoxazolidin-2-yl)-7H-pyrrolo[2,3-d]pyrimidin-2-yl)amino)-3,4-dihydroisoquinolin-2(1H)-yl)ethan-1-one] | > 500
COc1cc2c(cc1Nc1nc(N3OCC[C@H]3c3ccccc3)c3cc[nH]c3n1)CNCC2 [Example 107, (S)-6-methoxy-N-(4-(3-phenylisoxazolidin-2-yl)-7H-pyrrolo[2,3-d]pyrimidin-2-yl)-1,2,3,4-tetrahydroisoquinolin-7-amine] | > 500
COc1ccc2c(c1Nc1nc(N3OCC[C@H]3c3ccccc3)c3cc[nH]c3n1)CCNC2 [Example 113, (S)-6-methoxy-N-(4-(3-phenylisoxazolidin-2-yl)-7H-pyrrolo[2,3-d]pyrimidin-2-yl)-1,2,3,4-tetrahydroisoquinolin-5-amine] | > 500
COc1cc2c(cc1Nc1nc(N3OCC[C@H]3c3ccccc3)c3c(C#N)c[nH]c3n1)CN(C1CC1)CC2 [Example 122, (S)-2-((2-cyclopropyl-6-methoxy-1,2,3,4-tetrahydroisoquinolin-7-yl)amino)-4-(3-phenylisoxazolidin-2-yl)-7H-pyrrolo[2,3-d]pyrimidine-5-carbonitrile] | > 500
COc1ccc2c(c1Nc1nc(N3OCC[C@H]3c3ccccc3)c3cc[nH]c3n1)CCN(C)C2 [Example 114, (S)-6-methoxy-2-methyl-N-(4-(3-phenylisoxazolidin-2-yl)-7H-pyrrolo[2,3-d]pyrimidin-2-yl)-1,2,3,4-tetrahydroisoquinolin-5-amine] | > 500
CN(C)C(=O)Cn1cc(Nc2nc(N3OCC[C@H]3c3ccccc3)c3cc[nH]c3n2)cn1 [Example 103, S-N,N-dimethyl-2-(4-((4-(3-phenylisoxazolidin-2-yl)-7H-pyrrolo[2,3-d]pyrimidin-2-yl)amino)-1H-pyrazol-1-yl)acetamide] | > 500
COc1cc2c(cc1Nc1nc(N3OCC[C@H]3c3ccccc3)c3cc[nH]c3n1)C(=O)NCC2 [Example 108, (S)-6-methoxy-7-((4-(3-phenylisoxazolidin-2-yl)-7H-pyrrolo[2,3-d]pyrimidin-2-yl)amino)-3,4-dihydroisoquinolin-1(2H)-one] | ≥ 250
COc1cc(C(=O)N2CCC(N3CCOCC3)CC2)ccc1Nc1nc(N2OCC[C@H]2c2ccccc2)c2cc[nH]c2n1 [Example 97, (S)-(3-methoxy-4-((4-(3-phenylisoxazolidin-2-yl)-7H-pyrrolo[2,3-d]pyrimidin-2-yl)amino)phenyl)(4-morpholinopiperidin-1-yl)methanone] | > 500
FC(F)(F)c1c[nH]c2nc(Nc3ccc4c(c3)CCNC4)nc(N3OCC[C@H]3c3ccccc3)c12 [Example 124, (S)-N-(4-(3-phenylisoxazolidin-2-yl)-5-(trifluoromethyl)-7H-pyrrolo[2,3-d]pyrimidin-2-yl)-1,2,3,4-tetrahydroisoquinolin-6-amine] | > 500
COc1cc(N2CCC(N3CCN(C)CC3)CC2)ccc1Nc1nc(N2OCC[C@H]2c2ccccc2)c2cc[nH]c2n1 [Example 88, (S)-N-(2-methoxy-4-(4-(4-methylpiperazin-1-yl)piperidin-1-yl)phenyl)-4-(3-phenylisoxazolidin-2-yl)-7H-pyrrolo[2,3-d]pyrimidin-2-amine] | > 500
COc1cc(C(=O)N2CCC(N3CCN(C)CC3)CC2)ccc1Nc1nc(N2OCC[C@H]2c2ccccc2)c2cc[nH]c2n1 [Example 98, (S)-(3-methoxy-4-((4-(3-phenylisoxazolidin-2-yl)-7H-pyrrolo[2,3-d]pyrimidin-2-yl)amino)phenyl)(4-(4-methylpiperazin-1-yl)piperidin-1-yl)methanone] | > 500
c1ccc([C@@H]2CCON2c2nc(Nc3ccc(N4CCC(N5CCN(C6CC6)CC5)CC4)cc3)nc3[nH]ccc23)cc1 [Example 86, (S)-N-(4-(4-(4-cyclopropylpiperazin-1-yl)piperidin-1-yl)phenyl)-4-(3-phenylisoxazolidin-2-yl)-7H-pyrrolo[2,3-d]pyrimidin-2-amine] | > 500
